Test results: PubChem BioAssay (NCI)
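In this assay, cells in 96-well plates receive the compound at five concentrations for 48 hours. Endpoints are linearly interpolated between the surrounding concentrations. TGI denotes the concentration required for complete inhibition of growth.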

Tests used:
Assay in all cases: DTP human tumour cell line panel, 48 h
SK-OV-3 ovarian = test system: SK-OV-3 ovarian
MOLT-4 leukemia = test system: MOLT-4 leukemia
DU-145 prostate = test system: DU-145 prostate
SNB-75 CNS = test system: SNB-75 CNS
SW-620 colon = test system: SW-620 colon
OVCAR-3 ovarian = test system: OVCAR-3 ovarian
CCRF-CEM leukemia = test system: CCRF-CEM leukemia
HT29 colon = test system: HT29 colon
T-47D breast = test system: T-47D breast
MCF7 breast = test system: MCF7 breast

Row | Structure (SMILES) | TGI (SK-OV-3 ovarian) [µM] | TGI (MOLT-4 leukemia) [µM] | TGI (DU-145 prostate) [µM] | TGI (SNB-75 CNS) [µM] | TGI (SW-620 colon) [µM] | TGI (OVCAR-3 ovarian) [µM] | TGI (CCRF-CEM leukemia) [µM] | TGI (HT29 colon) [µM] | TGI (T-47D breast) [µM] | TGI (MCF7 breast) [µM]
1 | CC(C)(C)OC(=O)NC1CCCC1C(O)(C1=CCCC1)C1=CCCC1 (centres undefined) | > 100 | > 100 | > 100 | > 100 | > 100 | > 100 | > 100 | > 100 | > 100 | 
2 | CCOC(=O)CN=C1Nc2ccccc2C(=O)N2CSCC12 (centres undefined) | > 100 | > 100 | > 100 | > 100 | > 100 | > 100 | > 100 | > 100 | > 100 | > 100
3 | N#CC(c1nc2ccccc2s1)c1nc(Cl)ncc1Br (centres undefined) | > 100 | > 100 | > 100 | 71 | > 100 | 97.7 |  | > 100 | > 100 | 
4 | N#Cc1nc(C(F)(F)F)oc1N | > 100 | > 100 | > 100 | > 100 | > 100 | > 100 | > 100 | > 100 | > 100 | > 100
5 | COC(=O)c1ccc(CCC2=CC(=O)C(Br)=CC2=O)cc1 | 38 | 7.32 | 32 | 26.9 | 27.1 | 31.4 | 0.887 | 30.9 | 70.9 | 34.9
6 | Cc1ccc(S(=O)(=O)NC(=O)NC(Cc2ccccc2)C(=O)O)cc1 (centres undefined) | > 100 | > 100 | > 100 | > 100 | > 100 |  | > 100 | > 100 | > 100 | > 100
7 | CCSCC(=O)N1CCc2c([nH]c3ccccc23)C1=O | > 100 | > 100 | > 100 | > 100 | > 100 | > 100 | > 100 | > 100 | > 100 | > 100
8 | CCOC(=O)c1[nH]cnc1/N=N/N(C)N | > 100 | > 100 | > 100 | > 100 | > 100 | > 100 |  | > 100 | > 100 | > 100
9 | CC1(C)CC(=O)C2=C(C1)NC(SCC(=O)O)=C(C#N)C2c1ccc(Br)cc1 (centres undefined) | > 100 |  | > 100 | > 100 | > 100 | > 100 | > 100 | > 100 |  | > 100
10 | O=c1[nH]c(=S)c2cc3c(=S)[nH]c(=O)n(CCC(c4ccccc4)(c4ccccc4)c4ccccc4)c3nc2n1CCC(c1ccccc1)(c1ccccc1)c1ccccc1 | > 100 | 84.1 | > 100 | > 100 |  | > 100 | 27.7 |  | > 100 | > 100
11 | CC(C)=CC(C)C(C(O)CCC1(c2ccoc2)OCCO1)S(=O)(=O)c1ccccc1 (centres undefined) | > 100 |  |  | > 100 | > 100 | > 100 | > 100 |  | > 100 | > 100
12 | OCc1c2c(cc3c1CC1(C3)Cc3cc4c(c(CO)c3C1)CCC4)CCC2 | 33 | 28.3 |  |  |  | 28.3 | 25.9 | 32.4 | 31 | 44.6
13 | O=c1c(/C=C/c2c(O)ccc3ccccc23)nnc2sc(-c3cccc([N+](=O)[O-])c3)nn12 | > 100 | 28.4 | > 100 |  | > 100 | 7.23 |  | > 100 |  | 
14 | [N-]=[N+]=NC1=NNC2(C(=O)N1)c1ccccc1-c1ccccc12 | > 100 |  | > 100 | > 100 | > 100 | > 100 | > 100 | > 100 |  | > 100
15 | OCCN1CN(c2nc(N3CN(CCO)C3)nc(N3CN(CCO)C3)n2)C1 |  | > 100 | 54.7 | 57 | > 100 |  | 50.6 | 71.4 | 64.7 | 46.9
16 | O=C(O)C(F)(F)C(F)(F)C(F)(F)C(F)(F)C(=O)O | > 100 |  | > 100 | > 100 | > 100 | > 100 | > 100 | > 100 | > 100 | > 100
17 | Cc1c(C)c2c(c(N)c1C#N)C(=O)N(OS(=O)(=O)c1ccccc1)C2=O |  | 87 | 64.3 | > 100 | 47.2 | 59.8 | > 100 |  | 20 | > 100
18 | Cc1c(NC(=S)N/N=C\C(=N/NC(=S)Nc2c(C)n(C)n(-c3ccccc3)c2=O)c2ccccc2)c(=O)n(-c2ccccc2)n1C | > 100 | > 100 | > 100 | > 100 | > 100 | > 100 |  | > 100 | > 100 | 
19 | COC(=O)c1c(O)ccc2c1c1c(n2Cc2ccc(OC)cc2)C(=O)c2ccccc2C1=O | 48.1 |  | 52.5 | 85.8 | 45.6 | 43.9 | 0.296 | 8.55 | 46.1 | 26.7
20 | C\C=C/C=C/C=C/C(=O)O | > 100 | > 100 |  | > 100 | > 100 | > 100 | > 100 | > 100 |  | 
21 | C/C=C1\CN2CCC34c5ccccc5N(C)C35OCC4(C(=O)OC)C1CC25 (centres undefined) | > 100 | > 100 | > 100 | > 100 | > 100 | > 100 | > 100 |  | 75.7 | > 100
22 | NNC(=Nc1ccccc1)SCc1ccccc1 | > 100 | > 100 | > 100 | > 100 | > 100 | > 100 | > 100 | > 100 |  | > 100
23 | CC(C)=NNc1cnnc2ccc([N+](=O)[O-])cc12 | > 100 | > 100 | > 100 | > 100 | > 100 |  | > 100 | > 100 | > 100 | > 100
24 | O=C(Nc1ccccc1)c1cc(S(=O)(=O)Nc2n[nH]c(=O)[nH]2)c(SSc2cc(Cl)c(C(=O)Nc3ccccc3)cc2S(=O)(=O)Nc2n[nH]c(=O)[nH]2)cc1Cl | > 100 | > 100 |  | > 100 | > 100 | > 100 | > 100 | > 100 |  | > 100

Row | Structure (SMILES) | TGI (SK-OV-3 ovarian) [µM] | TGI (MOLT-4 leukemia) [µM] | TGI (DU-145 prostate) [µM] | TGI (SNB-75 CNS) [µM] | TGI (SW-620 colon) [µM] | TGI (OVCAR-3 ovarian) [µM] | TGI (CCRF-CEM leukemia) [µM] | TGI (HT29 colon) [µM] | TGI (T-47D breast) [µM] | TGI (MCF7 breast) [µM]
25 | CSc1nc2c(c(=O)n1C)N=C(c1ccc(Cl)cc1)CC(c1ccccc1)N2 (centres undefined) | 70.3 | 53.9 | 73 | 37.2 | > 100 | > 100 | 72.6 | 31.6 |  | 27.2
26 | Cc1ccc2ccc(=O)oc2c1 |  | > 100 | > 100 | > 100 | > 100 | > 100 | > 100 | > 100 | > 100 | > 100
27 | CC1=NC2(CCCCC2)N(Cl)C(=O)C1SC#N (centres undefined) |  | 23.7 | > 100 | 44.5 | 62.6 | 35.2 | 12.8 | 46.4 | 62.7 | 48.9
28 | CCCN=C1Nc2ccccc2[C@@H]2N(C)c3ccccc3C(C)C[C@]12C (some centres undefined) |  | 45.7 | > 100 | 49.8 | 36 | 54.1 | 62.9 | 27.8 | 49.6 | 49.3
29 | CN1c2ccccc2C(=O)NC12CCN(Cc1ccccc1)CC2 | > 100 | > 100 | > 100 | > 100 | > 100 |  | > 100 | > 100 | > 100 | > 100
30 | Fc1ccc(C2NC(=S)NC3=C2CCOc2c3ccc3ccccc23)cc1 (centres undefined) | > 100 | > 100 | > 100 | > 100 | > 100 | > 100 | > 100 |  | 9.44 | > 100
31 | COC(=O)c1c(C)ccc2c(O)c3c(cc12)C(=O)c1c2c(cc(O)c1C3=O)C1(C)OC(C)(O2)C(O)C(N(C)C)C1O (centres undefined) | > 100 | 3.2 | 2.46 | 12.7 | > 100 | 9.59 |  | 2.01 |  | 8.04
32 | CC1(C)C2CCC1(C)C(N/C(=C(/C(Cl)=C(Cl)Cl)[N+](=O)[O-])n1nnc3ccccc31)C2 (centres undefined) | > 100 |  |  | 70 | > 100 | 32.6 | > 100 | > 100 | > 100 | > 100
33 | CCn1nc(-c2ccccc2)c2c1N(C)c1ccccc1-n1c(-c3ccccc3)nnc1-2 | 38.5 |  | 29.7 | 15.7 | 29.6 |  | > 100 |  | 46.9 | 19.8
34 | Cc1c(C#N)c2nnn(-c3ccc([N+](=O)[O-])cc3)c(=O)n2c1-c1ccccc1 | 79.4 |  | 26.1 | 39.7 | 51 | 10 | > 100 | 23.7 | 14.3 | 19.6
35 | c1nncn1C12C3C4C5C3C1C5C42 (centres undefined) | > 100 | > 100 | > 100 | > 100 | > 100 |  | > 100 | > 100 | > 100 | > 100
36 | Cc1ccc(S(=O)(=O)N(CC(O)c2ccccc2)c2ccccc2F)cc1 (centres undefined) | 38.4 |  | 32.2 | 30.3 | 39.9 | 25 | 64.5 | 34.4 | 40.7 | 28
37 | OC12C3C4CC5C(C4[C@@H]1Br)C2[C@@](O)(c1c(F)c(F)c(F)c(F)c1F)C53 (some centres undefined) |  | > 100 | > 100 |  | > 100 | 65.8 | > 100 | > 100 | > 100 | 43.7
38 | N#CN=C1c2ccccc2C(=NC#N)c2cc(CO)ccc21 |  | 59 | 69 | 60.7 | > 100 | > 100 |  | > 100 | 89.2 | 83.1
39 | COc1ccc(/C=C2\Sc3nnc(C)n3N=C2c2cc(F)c(Cl)cc2Cl)cc1OC | 76.9 | > 100 | 27.8 |  | > 100 | 16 | > 100 | 26.6 | > 100 | 19.5
40 | O=S(=O)(O)c1ccc2c(N=Nc3ccccc3)c(O)c(S(=O)(=O)O)cc2c1 | > 100 | > 100 | > 100 | > 100 | > 100 | > 100 | > 100 |  | > 100 | > 100
41 | CCN(CC)c1ccc(/C=c2\nc(-c3ccccc3)n3c2nc2ccccc23)cc1 | > 100 | > 100 | > 100 |  | > 100 | > 100 | 11.7 | 5.98 | 5.84 | > 100
42 | Cc1ccc(C(=O)Cc2nc3ncccc3[nH]c2=O)cc1 | 45.4 | > 100 | > 100 |  | > 100 | > 100 | > 100 | > 100 | > 100 | > 100
43 | CC(=O)c1cc2c(s1)C(=O)c1scc(C(C)=O)c1C2=O | 4.86 |  | 2.86 | 2.65 |  | 0.271 | 0.59 | 4.2 | 0.838 | 
44 | O=C(O)CS(=O)c1ccc2c3c(cccc13)C(=O)c1ccccc1-2 (centres undefined) | > 100 |  | > 100 | > 100 | > 100 | > 100 | > 100 | > 100 | > 100 | > 100
45 | CC(=O)N1CC(C)(C)c2c1cc(C)c(O)c2C | > 100 | > 100 | > 100 |  | > 100 | > 100 | > 100 | > 100 | > 100 | > 100
46 | O=C(O)CCC(C(=O)O)N1C(=O)c2ccccc2C1=O (centres undefined) | > 100 |  | > 100 | > 100 | > 100 | > 100 | > 100 | > 100 | > 100 | > 100
47 | O=C(Nc1ccc(Cl)cc1)c1cccc([N+](=O)[O-])c1O | 13.7 | 10.1 |  | 26.1 | > 100 | 9.09 | 11.7 | > 73.1 |  | 
48 | Cc1cccc(/C=N/NC(=S)N2CCCCCC2)n1 |  |  |  | 0.758 | > 100 |  |  | > 40 | > 100 | 
